The values that follow come from patent publication US20240132513A1, “BENZAZEPINE DERIVATIVES, COMPOSITIONS, AND METHODS FOR TREATING COGNITIVE IMPAIRMENT” (AGENEBIO, INC., priority 2022, published 2024).

The target of one experiment is α5β3γ2 GABAA R (Homo sapiens, UniProt P18507+P31644). The experiment in a line: Binding activity on GABAA R: inhibition of [3H]Ro15-1788 binding, α5 containing receptor. The method, boiled down:
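Membranes from dexamethasone-induced (0.5 μM, 1 day) Ltk cells stably expressing α5β3γ2 receptors, 0.2 mg/ml protein, incubated with [3H]Ro15-1788 for 1 h at 4 °C in 50 mM KH2PO4/1 mM EDTA/0.2 M KCl, pH 7.4. Nonspecific binding with 10 μM diazepam; bound ligand by GF/B filtration and scintillation counting, triplicates.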

The target in another experiment is T1, GABAA R (α5β2γ2) (Homo sapiens, UniProt P18507+P31644).
T1 construct: expressed in transfected cells
The experiment in a line: Positive allosteric modulator activity: potentiation of EC20 GABA current in oocytes. The format is cell-based. Summed up:
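Xenopus oocytes injected with 1 ng α5:β2:γ2 cDNA (1:1:10 by weight), tested day 2, voltage-clamped at −60 mV under MBS superfusion.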

The mark [1] stands for this setting: read-out: GABA α5 Functional Data: potentiation, @ 100 nM, EC20 GABA, ranges of the column heads.
[2] abbreviates: ranges of the column heads, [3H]Ro15-1788, Ltk cell membranes.
Setting [3] is: read-out: GABA α5 Functional Data: potentiation.

Structures are written as SMILES. Read-outs that look alike come from different tables or passages of the source.

Chain of α5β3γ2 GABAA R (P31644 32-462): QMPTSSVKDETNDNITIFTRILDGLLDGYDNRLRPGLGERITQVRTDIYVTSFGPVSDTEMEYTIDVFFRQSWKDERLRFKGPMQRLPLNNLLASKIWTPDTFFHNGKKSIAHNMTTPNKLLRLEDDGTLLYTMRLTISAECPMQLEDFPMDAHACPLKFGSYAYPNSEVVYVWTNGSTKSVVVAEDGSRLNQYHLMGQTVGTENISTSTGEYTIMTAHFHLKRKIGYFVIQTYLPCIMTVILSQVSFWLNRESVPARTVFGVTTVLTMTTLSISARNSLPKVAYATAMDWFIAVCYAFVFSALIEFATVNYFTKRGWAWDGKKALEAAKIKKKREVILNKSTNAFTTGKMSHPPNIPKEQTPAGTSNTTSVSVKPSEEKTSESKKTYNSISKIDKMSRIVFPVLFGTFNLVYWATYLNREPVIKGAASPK
Chain of α5β3γ2 GABAA R (P28472 26-473 partner): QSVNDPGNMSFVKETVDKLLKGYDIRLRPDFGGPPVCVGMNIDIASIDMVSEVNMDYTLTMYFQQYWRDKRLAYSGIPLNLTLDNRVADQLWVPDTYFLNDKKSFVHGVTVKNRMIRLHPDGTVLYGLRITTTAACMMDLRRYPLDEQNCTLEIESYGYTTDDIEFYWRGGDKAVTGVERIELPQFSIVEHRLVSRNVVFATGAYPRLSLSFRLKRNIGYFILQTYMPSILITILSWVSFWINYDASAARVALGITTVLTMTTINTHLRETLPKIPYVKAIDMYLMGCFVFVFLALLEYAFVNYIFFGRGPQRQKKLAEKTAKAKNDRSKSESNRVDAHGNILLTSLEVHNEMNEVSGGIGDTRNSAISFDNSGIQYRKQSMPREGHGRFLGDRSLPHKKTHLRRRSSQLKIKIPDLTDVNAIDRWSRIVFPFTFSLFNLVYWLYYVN
Chain of α5β3γ2 GABAA R (P18507 40-475): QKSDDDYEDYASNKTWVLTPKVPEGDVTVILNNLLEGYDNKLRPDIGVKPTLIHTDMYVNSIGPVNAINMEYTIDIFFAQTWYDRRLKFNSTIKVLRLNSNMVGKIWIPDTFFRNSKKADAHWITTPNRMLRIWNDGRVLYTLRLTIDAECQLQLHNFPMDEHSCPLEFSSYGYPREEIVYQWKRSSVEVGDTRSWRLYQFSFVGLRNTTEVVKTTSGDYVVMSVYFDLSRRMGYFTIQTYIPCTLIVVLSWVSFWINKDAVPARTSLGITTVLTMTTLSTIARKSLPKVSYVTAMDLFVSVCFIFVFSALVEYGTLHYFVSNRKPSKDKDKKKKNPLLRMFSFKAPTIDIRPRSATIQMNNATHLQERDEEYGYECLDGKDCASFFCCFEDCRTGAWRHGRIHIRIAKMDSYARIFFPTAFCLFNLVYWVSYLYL
T1 sequence (P31644 32-462): as the sequence (P31644 32-462) above
T1 sequence (P47870 25-512 partner limits assumed): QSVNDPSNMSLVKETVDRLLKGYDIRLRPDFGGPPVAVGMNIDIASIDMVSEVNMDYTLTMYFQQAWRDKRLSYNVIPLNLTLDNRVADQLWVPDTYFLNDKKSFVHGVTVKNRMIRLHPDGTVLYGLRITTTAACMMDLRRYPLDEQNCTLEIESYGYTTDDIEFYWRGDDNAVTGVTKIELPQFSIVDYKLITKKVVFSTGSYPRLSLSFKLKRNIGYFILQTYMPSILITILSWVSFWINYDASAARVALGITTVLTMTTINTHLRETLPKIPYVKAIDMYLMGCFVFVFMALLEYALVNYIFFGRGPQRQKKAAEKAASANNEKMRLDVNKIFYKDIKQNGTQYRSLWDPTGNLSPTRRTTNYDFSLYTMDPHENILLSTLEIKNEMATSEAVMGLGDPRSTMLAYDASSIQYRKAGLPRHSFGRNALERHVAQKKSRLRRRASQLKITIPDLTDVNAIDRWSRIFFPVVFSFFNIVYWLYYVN
T1 sequence (P18507 40-475): as the sequence (P18507 40-475) above

At α5β3γ2 GABAA R, `CCn1cc2c(n1)-c1cc(Cl)ccc1-n1cnc(-c3noc(COC4CCCC4)n3)c1C2` [Compound 194] returned an inhibition constant (Ki) of less than 100 nM. Besides, the activation at 0.1 µM at GABAA R (α5β2γ2) (setting [1]) fell in the range of 20 to 50%.

Regarding `CCn1cc2c(n1)-c1cc(OC)ccc1-n1cnc(-c3noc(C4CC4)n3)c1C2` [Compound 157], the Ki on α5β3γ2 GABAA R was less than 100 nM. Further, the activation at 0.1 µM on GABAA R (α5β2γ2) (setting [1]) was in the range of 20 to 50%.

Consider `Cc1noc(-c2ncn3c2Cc2cn(C)nc2-c2cc(Cl)ccc2-3)n1` [Compound 121], for which the Ki on α5β3γ2 GABAA R is less than 100 nM. In addition, the activation at 0.1 µM at GABAA R (α5β2γ2) (setting [1]) fell in the range of 20 to 50%.

With `COC(C)(C)c1noc(-c2ncn3c2Cc2cn(CC4CCCO4)nc2-c2cc(Cl)ccc2-3)n1` (centres unmarked) [Compound 280], on α5β3γ2 GABAA R, the Ki is less than 100 nM. The activation at 0.1 µM at GABAA R (α5β2γ2) (setting [1]) was 20 to 50%.

On α5β3γ2 GABAA R, `COc1ccc2c(c1)-c1nn(C)cc1Cc1c(-c3noc(C4(F)CC4)n3)ncn1-2` [Compound 205] gave a Ki of less than 100 nM. Moreover, at GABAA R (α5β2γ2) (setting [1]), the activation at 0.1 µM was in the range of 20 to 50%.

`COC(C)(C)c1nc(-c2ncn3c2Cc2cn(C)nc2-c2cc(Cl)ccc2-3)no1` [Compound 214] showed a Ki at α5β3γ2 GABAA R of less than 100 nM. Further, the activation at 0.1 µM at GABAA R (α5β2γ2) (setting [1]) was more than 50%.

In the case of `CCn1cc2c(n1)-c1cc(Cl)ccc1-n1cnc(-c3noc(C4CC4)n3)c1C2` [Compound 176], the inhibition constant Ki at α5β3γ2 GABAA R (setting [2]) was less than 100 nM. In addition, the activation at 0.1 µM at GABAA R (α5β2γ2) (setting [3]) fell in the range of 5 to 20%.

`COCc1noc(-c2ncn3c2Cc2cn(CC4CCCO4)nc2-c2cc(Cl)ccc2-3)n1` (centres unmarked) [Compound 288] showed a Ki at α5β3γ2 GABAA R of less than 100 nM. The activation at 0.1 µM on GABAA R (α5β2γ2) (setting [1]) is more than 50%.

`COc1ccc2c(c1)-c1nn(CC3CCCO3)cc1Cc1c(-c3noc(C4COC4)n3)ncn1-2` (centres unmarked) [Compound 294] showed a Ki at α5β3γ2 GABAA R of less than 100 nM. Further, the activation at 0.1 µM at GABAA R (α5β2γ2) (setting [1]) is more than 50%.

At α5β3γ2 GABAA R (setting [2]), `Cc1nc(-c2ncn3c2Cc2cn(C(C)C)nc2-c2cc(Cl)ccc2-3)no1` [Compound 147] showed a Ki of less than 100 nM. In addition, on GABAA R (α5β2γ2) (setting [3]), the activation at 0.1 µM was 5 to 20%.

On to `Cn1cc2c(n1)-c1cc(Cl)ccc1-n1cnc(-c3nc([C@@H]4CCOC4)no3)c1C2` [Compound 261], for which the inhibition constant Ki on α5β3γ2 GABAA R was less than 100 nM. Besides, the activation at 0.1 µM on GABAA R (α5β2γ2) (setting [1]) fell in the range of 5 to 20%.

At α5β3γ2 GABAA R (setting [2]), `Cn1cc2c(n1)-c1cc(Cl)ccc1-n1cnc(-c3nnc(C4CCOC4)o3)c1C2` (centres unmarked) [Compound 212] returned a Ki of less than 100 nM. For the same molecule, the activation at 0.1 µM at GABAA R (α5β2γ2) (setting [3]) is 5 to 20%.

For the molecule `CN(C)Cc1coc(-c2ncn3c2Cc2cn(C)nc2-c2cc(Cl)ccc2-3)n1` [Compound 277], the inhibition constant (Ki) on α5β3γ2 GABAA R is less than 100 nM. In addition, the activation at 0.1 µM on GABAA R (α5β2γ2) (setting [1]) was in the range of 20 to 50%.

Take `CC(C)c1noc(-c2ncn3c2Cc2cn(Cc4ccncc4)nc2-c2cc(Cl)ccc2-3)n1` [Compound 97]: on α5β3γ2 GABAA R, the Ki is less than 100 nM. Besides, the activation at 0.1 µM at GABAA R (α5β2γ2) (setting [1]) fell in the range of 5 to 20%.

The molecule `COC1(c2nc(-c3ncn4c3Cc3cn(C)nc3-c3cc(Cl)ccc3-4)no2)CC1` [Compound 216] showed a Ki at α5β3γ2 GABAA R of less than 100 nM. Also, the activation at 0.1 µM on GABAA R (α5β2γ2) (setting [1]) lay within 5 to 20%.

Molecule `CCn1cc2c(n1)-c1cc(Cl)ccc1-n1cnc(C3=N[C@@H](c4ccccc4)CO3)c1C2` [Compound 179] yielded a Ki at α5β3γ2 GABAA R of less than 100 nM. The activation at 0.1 µM at GABAA R (α5β2γ2) (setting [1]) is 20 to 50%.

For the molecule `CCn1cc2c(n1)-c1cc(OC)ccc1-n1cnc(-c3nc(C(C)C)no3)c1C2` [Compound 151], the inhibitory constant (Ki) at α5β3γ2 GABAA R is less than 100 nM. In addition, the activation at 0.1 µM at GABAA R (α5β2γ2) (setting [1]) is 5 to 20%.

`COc1ccc2c(c1)-c1c(cnn1C)Cc1c(-c3noc(COCC(F)(F)F)n3)ncn1-2` [Compound 184] displayed a Ki at α5β3γ2 GABAA R (setting [2]) of less than 100 nM. The activation at 0.1 µM at GABAA R (α5β2γ2) (setting [3]) is more than 50%.

In turn, `Cn1cc2c(n1)-c1cc(Cl)ccc1-n1cnc(-c3noc(C4COC4)n3)c1C2` [Compound 223] displayed a Ki at α5β3γ2 GABAA R (setting [2]) of less than 100 nM. Besides, the activation at 0.1 µM on GABAA R (α5β2γ2) (setting [3]) was 5 to 20%.

Regarding `COc1ccc2c(c1)-c1nn(C)cc1Cc1c(-c3noc([C@H]4CCOC4)n3)ncn1-2` [Compound 257], at α5β3γ2 GABAA R, the Ki was less than 100 nM. Besides, the activation at 0.1 µM on GABAA R (α5β2γ2) (setting [1]) was 20 to 50%.

On α5β3γ2 GABAA R, `COc1ccc2c(c1)-c1nn(Cc3ccccn3)cc1Cc1c(-c3nc(C(C)C)no3)ncn1-2` [Compound 124] came in with an inhibitory constant (Ki) of less than 100 nM. For the same molecule, the activation at 0.1 µM at GABAA R (α5β2γ2) (setting [1]) fell in the range of 20 to 50%.

Molecule `CC(C)c1noc(-c2ncn3c2Cc2cn(CC4CCOCC4)nc2-c2cc(Cl)ccc2-3)n1` [Compound 251] registered a Ki on α5β3γ2 GABAA R (setting [2]) of less than 100 nM. The activation at 0.1 µM on GABAA R (α5β2γ2) (setting [3]) lay within 5 to 20%.
